Measurements from article PMC3794980, “Identification of Conserved and HLA Promiscuous DENV3 T-Cell Epitopes” (PLoS Neglected Tropical Diseases, 2013).
Read-outs that look alike come from different tables or passages of the source.

What was measured:
Experiment in all cases: biochemical
Type in all cases: binding
DRB1*1101 = DRB1*1101 (Homo sapiens, UniProt P01903+P01911, A100R/A169T/A87E/I96F/K41T/L162R/M171V/P40S/Q125H/Q178H/Q39Y/Q99D/R42S/S66Y/T262R/V115G/W38E)
DRB1*0701 = DRB1*0701 (Homo sapiens, UniProt P01903+P01911, A100R/A102G/A103Q/D57E/D86V/E43K/F76Y/K127E/L162R/M171V/P40G/Q125H/Q99D/R33Q/R42Y/R54Q/S133A/S66F/T210M/V115G/Y107V/Y59L/Y89S)
DRB1*1501 = DRB1*1501 (Homo sapiens, UniProt P01903+P01911)
DRB1*0101 = DRB1*0101 (Homo sapiens, UniProt P01903+P01911, A100R/D57E/F55L/F60I/F76Y/I96L/L162R/M171V/P40L/Q125E/R42F/V115G/Y59C)
DRB4*0101 = DRB4*0101 (Homo sapiens, UniProt P01903+P13762, G164S)
DRB1*0301 = DRB1*0301 (Homo sapiens, UniProt P01903+P01911, A100K/A102G/A103R/A169T/F55Y/I96L/K41T/L162R/M171V/P40S/Q125H/Q178H/Q39Y/R42S/S66N/T106N/T262R/W38E/Y61H)
DRB1*0301, sequence (P01903 26-254, other chains not shown): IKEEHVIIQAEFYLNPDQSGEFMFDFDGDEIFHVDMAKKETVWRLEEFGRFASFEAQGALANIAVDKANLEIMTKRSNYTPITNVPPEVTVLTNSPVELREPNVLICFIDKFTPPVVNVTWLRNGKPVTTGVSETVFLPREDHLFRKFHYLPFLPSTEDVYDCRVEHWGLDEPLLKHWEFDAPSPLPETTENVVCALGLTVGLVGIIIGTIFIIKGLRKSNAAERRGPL

DRB1*0901 = DRB1*0901 (Homo sapiens, UniProt P01903+P01911, A100R/A103E/D57H/D86V/F55Y/F60I/F76Y/I96F/K127E/L162R/M171V/P40D/Q125H/Q99R/R33Q/R42F/S133A/S66N/T210M/V115G/W38K/Y107V/Y59G/Y89S)
DRB1*0404 = DRB1*0404 (Homo sapiens, UniProt P01903+P01911, A100R/A169T/F76Y/I96L/K127E/L162R/M171V/N62H/P40V/Q125Y/R42H/S133A/S149N/S66Y/V209L/W38E)
DRB1*0401 = DRB1*0401 (Homo sapiens, UniProt P01903+P01911, A100K/A169T/F76Y/I96L/K127E/L162R/M171V/N62H/P40V/Q125Y/R42H/S133A/S149N/S66Y/V115G/V209L/W38E)
DRB1*0405 = DRB1*0405 (Homo sapiens, UniProt P01903+P01911, A100R/A169T/D86S/F76Y/I96L/K127E/L162R/M171V/N62H/P40V/Q125Y/R42H/S133A/S149N/S66Y/V115G/V209L/W38E)
DRB1*1302 = DRB1*1302 (Homo sapiens, UniProt P01903+P01911, A100E/A169T/K41T/L162R/M171V/P40S/Q125H/Q178H/Q39Y/Q99D/R42S/S66N/T262R/V115G/W38E/Y61H)
DRB1*1302, sequence (P01903 26-254 limits assumed, other chains not shown): as the sequence (P01903 26-254, other chains not shown) above

DRB1*0802 = DRB1*0802 (Homo sapiens, UniProt P01903+P01911, A100R/A103L/A169T/F76Y/H45Y/I96F/K41T/L162R/M171V/P40S/Q125H/Q178H/Q39Y/Q99D/R218S/R42G/S66Y/V115G/W38E)
DRB3*0101 = DRB3*0101 (Homo sapiens, UniProt P01903+P79483)
DRB5*0101 = DRB5*0101 (Homo sapiens, UniProt P01903+Q30154)
[1] = competitive inhibition of radiolabeled standard peptide, DRB1*0901, read-out: Binding Affinity (nM) DRB1*0901
[2] = competitive inhibition of radiolabeled standard peptide, DRB1*1302, read-out: Binding Affinity (nM) DRB1*1302
[3] = competitive inhibition of radiolabeled standard peptide, '-' distinct from ND, read-out: Binding Affinity (nM) DRB1*0901
[4] = competitive inhibition of radiolabeled standard peptide, '-' distinct from ND, read-out: Binding Affinity (nM) DRB1*1302

DRB1*1101, sequence (P01903 26-254, other chains not shown): as above

Compound	IC50 (DRB1*1101) [µM]	IC50 (DRB1*0701) [µM]	IC50 (DRB1*1501) [µM]	IC50 (DRB1*0101) [µM]	IC50 (DRB4*0101) [µM]	IC50 (DRB1*0301) [µM]	IC50 (DRB1*0901; [1]) [nM]	IC50 (DRB1*0404) [µM]	IC50 (DRB1*0401) [µM]	IC50 (DRB1*0405) [µM]	IC50 (DRB1*1302; [2]) [nM]	IC50 (DRB1*0802) [µM]	IC50 (DRB3*0101) [µM]	IC50 (DRB5*0101) [µM]	IC50 (DRB1*0901; [3]) [nM]	IC50 (DRB1*1302; [4]) [nM]	IC50 (DRB1*0901) [nM]	IC50 (DRB1*1302) [nM]
CC[C@H](C)[C@H](NC(=O)[C@H](C)NC(=O)[C@H](CC(N)=O)NC(=O)[C@H](CO)NC(=O)[C@H](C)NC(=O)[C@H](CC(C)C)NC(=O)[C@H](CCCNC(=N)N)NC(=O)[C@H](CC(C)C)NC(=O)[C@H](CC(=O)O)NC(=O)[C@H](CCCNC(=N)N)NC(=O)[C@@H](N)CCCNC(=N)N)C(=O)N[C@@H](CS)C(=O)N[C@@H](CO)C(=O)N[C@@H](C)C(=O)N[C@H](C(=O)N1CCC[C@H]1C(=O)N[C@H](C(=O)O)C(C)C)C(C)C [NS5 769-785]	0.079	0.121	0.021	0.028	0.212	0.409	61	0.093	0.0036	0.016	4.5	0.028	–	–	–	–	–	–
CC[C@H](C)[C@H](NC(=O)[C@H](CCCCN)NC(=O)[C@H](C)NC(=O)[C@H](CCCCN)NC(=O)CNC(=O)[C@H](Cc1c[nH]c2ccccc12)NC(=O)[C@@H](N)[C@@H](C)O)C(=O)N[C@H](C(=O)N[C@H](C(=O)N[C@@H](C)C(=O)N[C@@H](CCC(=O)O)C(=O)N[C@H](C(=O)N[C@@H](CCC(N)=O)C(=O)N[C@@H](CC(N)=O)C(=O)N[C@@H](CO)C(=O)O)[C@@H](C)O)[C@@H](C)O)C(C)C [NS1 117-131]	18.2	6.69	3.75	1.09	–	4.16	–	0.695	0.028	0.285	–	–	0.534	3.93	2630	1240	–	–
CC[C@H](C)[C@H](NC(=O)[C@H](Cc1ccc(O)cc1)NC(=O)CNC(=O)[C@H](CC(C)C)NC(=O)[C@H](CCCCN)NC(=O)[C@H](Cc1c[nH]cn1)NC(=O)[C@H](CC(C)C)NC(=O)CNC(=O)[C@H](CCC(=O)O)NC(=O)CNC(=O)[C@H](CCC(=O)O)NC(=O)[C@@H](NC(=O)CNC(=O)[C@H](CO)NC(=O)[C@H](Cc1ccc(O)cc1)NC(=O)[C@H](CO)NC(=O)[C@@H](N)CC(N)=O)C(C)C)C(=O)O [NS5 501-517]	8.18	0.018	3.05	0.007	–	4.42	–	4.37	0.074	2.4	4990	0.836	2.96	1.12	–	–	–	–
CC[C@H](C)[C@H](NC(=O)[C@H](C)NC(=O)[C@H](C)NC(=O)[C@H](C)NC(=O)[C@@H](N)CCC(=O)O)C(=O)N[C@@H](Cc1ccccc1)C(=O)N[C@@H](CCSC)C(=O)N[C@H](C(=O)N[C@@H](C)C(=O)N[C@H](C(=O)N1CCC[C@H]1C(=O)N1CCC[C@H]1C(=O)NCC(=O)N[C@H](C(=O)N[C@@H](C)C(=O)O)[C@@H](C)O)[C@@H](C)O)[C@@H](C)O [NS3 309-323]	0.093	0.048	0.363	0.027	0.0092	–	–	0.35	0.0024	0.032	–	0.031	11.7	2.52	–	–	129	2640
CC[C@H](C)[C@H](NC(=O)[C@H](C)NC(=O)[C@H](CC(N)=O)NC(=O)[C@H](CO)NC(=O)[C@H](C)NC(=O)[C@H](CC(C)C)NC(=O)[C@H](CCCNC(=N)N)NC(=O)[C@H](CC(C)C)NC(=O)[C@H](CC(=O)O)NC(=O)[C@H](CCCNC(=N)N)NC(=O)[C@H](CCCNC(=N)N)NC(=O)[C@H](Cc1c[nH]cn1)NC(=O)[C@H](Cc1ccccc1)NC(=O)[C@H](Cc1ccc(O)cc1)NC(=O)[C@@H](N)CCSC)C(=O)O [NS5 765-779]	0.017	0.018	0.118	0.041	–	1.28	–	0.034	0.0047	0.018	–	0.0078	–	0.726	–	–	61	4.9
CC(C)C[C@H](NC(=O)[C@@H](NC(=O)CNC(=O)[C@H](CC(N)=O)NC(=O)[C@H](CO)NC(=O)[C@H](Cc1c[nH]c2ccccc12)NC(=O)[C@H](CC(C)C)NC(=O)[C@@H](NC(=O)[C@H](Cc1c[nH]cn1)NC(=O)[C@H](CO)NC(=O)[C@H](CCCCN)NC(=O)[C@@H]1CCCN1C(=O)[C@@H](N)Cc1c[nH]c2ccccc12)[C@@H](C)O)C(C)C)C(=O)N[C@@H](CCC(=O)O)C(=O)N[C@@H](CO)C(=O)O [NS1 225-239]	12.9	5.69	4.12	3.92	6.54	0.52	–	3.93	0.322	4.42	–	4.83	–	–	9390	59	–	–
CSCC[C@H](NC(=O)[C@H](CCC(N)=O)NC(=O)[C@H](C)NC(=O)[C@H](Cc1ccc(O)cc1)NC(=O)[C@H](C)NC(=O)[C@H](CCCCN)NC(=O)CNC(=O)[C@H](CC(C)C)NC(=O)[C@H](CS)NC(=O)[C@H](C)NC(=O)[C@@H](NC(=O)[C@H](CCC(=O)O)NC(=O)[C@H](CCCNC(=N)N)NC(=O)[C@H](CC(C)C)NC(=O)[C@@H](N)CO)[C@@H](C)O)C(=O)N[C@@H](Cc1c[nH]c2ccccc12)C(=O)N[C@H](C(=O)O)[C@@H](C)O [NS5 747-763]	0.08	2.98	0.167	0.054	4.66	5.74	393	0.111	–	0.039	–	0.551	8.31	–	–	–	–	–
CC[C@H](C)[C@H](NC(=O)[C@H](CCC(=O)O)NC(=O)CNC(=O)[C@@H](NC(=O)[C@@H](NC(=O)[C@@H](NC(=O)[C@H](CCC(N)=O)NC(=O)[C@H](Cc1ccccc1)NC(=O)[C@@H](NC(=O)CNC(=O)[C@@H]1CCCN1C(=O)[C@H](CCSC)NC(=O)[C@@H](NC(=O)[C@H](CCC(N)=O)NC(=O)[C@@H](N)Cc1ccccc1)[C@@H](C)O)[C@@H](C)O)[C@@H](C)O)[C@@H](C)O)[C@@H](C)O)C(=O)O [NS3 109-123]	3.86	1.02	2.18	0.148	–	16.4	–	0.961	0.222	–	–	0.557	4.14	2.75	–	–	1850	7040
CC[C@H](C)[C@H](NC(=O)[C@@H]1CCCN1C(=O)[C@H](CC(C)C)NC(=O)CNC(=O)[C@@H](N)CCCCN)C(=O)N[C@@H](CCCNC(=N)N)C(=O)N[C@@H](Cc1ccc(O)cc1)C(=O)N[C@@H](CCC(N)=O)C(=O)N[C@H](C(=O)N[C@H](C(=O)N[C@@H](C)C(=O)N[C@H](C(=O)N[C@@H](CCCCN)C(=O)N[C@@H](CO)C(=O)N[C@@H](CCC(=O)O)C(=O)O)[C@@H](C)O)[C@@H](C)O)[C@@H](C)O [NS3 237-251]	0.807	2.99	0.638	0.11	0.0055	1.82	–	0.31	0.013	–	–	0.036	19	0.013	928	2620	–	–
